Assay results from ChEMBL document CHEMBL6092189, “Synthesis of kanamycin-azole hybrids and investigation of their antifungal activities” (Bioorg Med Chem, 2024).
Active and inactive are the calls of the source. The rule behind the calls is not given here.

Assays:
[1] = Cytotoxicity against human HeLa cells assessed as reduction in cell viability incubated for 24 hrs by MTT assay; format: toxicity, cell-based
Escherichia coli = assay: Antibacterial activity against Escherichia coli ATCC 25922 assessed as inhibition of bacterial growth incubated for 18 hrs by two-fold dilution method; format: functional
Candida albicans [2] = assay: Antifungal activity against azole-resistant Candida albicans 64124 assessed as inhibition of fungal growth incubated for 48 hrs by two-fold dilution method; format: functional
Candida albicans [3] = assay: Antifungal activity against Candida albicans MYA2876 assessed as inhibition of fungal growth incubated for 48 hrs by two-fold dilution method; format: functional
Diutina rugosa = assay: Antifungal activity against Candida rugosa 95-967 assessed as inhibition of fungal growth incubated for 48 hrs by two-fold dilution assay; format: functional
Candida tropicalis = assay: Antifungal activity against Candida tropicalis 95-41 assessed as inhibition of fungal growth incubated for 48 hrs by two-fold dilution assay; format: functional
Staphylococcus aureus = assay: Antibacterial activity against Staphylococcus aureus ATCC 25923 assessed as inhibition of bacterial growth incubated for 18 hrs by two-fold dilution method; format: functional
Candida parapsilosis = assay: Antifungal activity against azole-resistant Candida parapsilosis Cas08-0490 assessed as inhibition of fungal growth incubated for 48 hrs by two-fold dilution method; format: functional; settings: Lodderomyces parapsilosis
Cryptococcus neoformans [4] = assay: Antifungal activity against Cryptococcus neoformans VR-54 assessed as inhibition of fungal growth incubated for 48 hrs by two-fold dilution assay; format: functional
Cryptococcus neoformans [5] = assay: Antifungal activity against Cryptococcus neoformans H99 assessed as inhibition of fungal growth incubated for 48 hrs by two-fold dilution method; format: functional
Cell membrane [6] = assay: Induction of membrane permeabilization in azole-resistant Candida parapsilosis Cas08-0490 assessed as pore formation by measuring fluorescence intensity at 256 ug/ml measured after 25 mins by SYTOX Green dye based fluorescence analysis; format: subcellular; settings: dose 256.0 µg/ml
Cell membrane [7] = assay: Induction of membrane permeabilization in Candida albicans 64124 assessed as pore formation by measuring increase in fluorescence intensity at 1/4X MIC measured after 5 mins by SYTOX Green dye based fluorescence analysis
Cell membrane [8] = assay: Induction of membrane permeabilization in Candida rugosa 95-967 assessed as pore formation by measuring fluorescence intensity at 256 ug/ml measured after 25 mins by SYTOX Green dye based fluorescence analysis; format: subcellular; settings: Diutina rugosa, dose 256.0 µg/ml
Cell membrane [9] = assay: Induction of membrane permeabilization in Candida albicans MYA2876 assessed as pore formation by measuring increase in fluorescence intensity at 1/4X MIC measured after 5 mins by SYTOX Green dye based fluorescence analysis

## Cl.Cl.Cl.Cl.NC[C@H]1O[C@H](O[C@H]2[C@H](O)[C@@H](O[C@H]3O[C@H](Cn4cc(CNC(=O)c5ccccc5Cl)nn4)[C@@H](O)[C@H](N)[C@H]3O)[C@H](N)C[C@@H]2N)[C@H](O)[C@@H](O)[C@@H]1O
[1]
  IC50 at 24 h: > 100 µg/mL
Escherichia coli
  MIC: 128 µg/mL
Candida albicans [2]
  MIC: ≥ 256 µg/mL
Candida albicans [3]
  MIC: ≥ 256 µg/mL
Diutina rugosa
  MIC: ≥ 256 µg/mL
Candida tropicalis
  MIC: ≥ 256 µg/mL
Staphylococcus aureus
  MIC: ≥ 256 µg/mL
Candida parapsilosis
  MIC: ≥ 256 µg/mL
Cryptococcus neoformans [4]
  MIC: ≥ 256 µg/mL
Cryptococcus neoformans [5]
  MIC: 64 µg/mL

## Cl.Cl.Cl.Cl.NC[C@H]1O[C@H](O[C@H]2[C@H](O)[C@@H](O[C@H]3O[C@H](Cn4cc(COC(Cn5ccnc5)c5ccc(F)cc5F)nn4)[C@@H](O)[C@H](N)[C@H]3O)[C@H](N)C[C@@H]2N)[C@H](O)[C@@H](O)[C@@H]1O (some centres undefined)
[1]
  IC50 at 24 h: > 100 µg/mL
Escherichia coli
  MIC: 64 µg/mL
Candida albicans [2]
  MIC: 128 µg/mL
Candida albicans [3]
  MIC: 128 µg/mL
Diutina rugosa
  MIC: ≥ 256 µg/mL
Candida tropicalis
  MIC: 8 µg/mL
Staphylococcus aureus
  MIC: 64 µg/mL
Candida parapsilosis
  MIC: ≥ 256 µg/mL
Cryptococcus neoformans [4]
  MIC: 128 µg/mL
Cryptococcus neoformans [5]
  MIC: 64 µg/mL

## Cl.Cl.Cl.Cl.NC[C@H]1O[C@H](O[C@H]2[C@H](O)[C@@H](O[C@H]3O[C@H](Cn4cc(CNC(=O)c5ccc(Cl)cc5)nn4)[C@@H](O)[C@H](N)[C@H]3O)[C@H](N)C[C@@H]2N)[C@H](O)[C@@H](O)[C@@H]1O
[1]
  IC50 at 24 h: > 100 µg/mL
Escherichia coli
  MIC: 128 µg/mL
Candida albicans [2]
  MIC: ≥ 256 µg/mL
Candida albicans [3]
  MIC: ≥ 256 µg/mL
Diutina rugosa
  MIC: ≥ 256 µg/mL
Candida tropicalis
  MIC: ≥ 256 µg/mL
Staphylococcus aureus
  MIC: 64 µg/mL
Candida parapsilosis
  MIC: ≥ 256 µg/mL
Cryptococcus neoformans [4]
  MIC: ≥ 256 µg/mL
Cryptococcus neoformans [5]
  MIC: 128 µg/mL

## Cl.Cl.Cl.Cl.NC[C@H]1O[C@H](O[C@H]2[C@H](O)[C@@H](O[C@H]3O[C@H](Cn4cc(COC(Cn5ccnc5)c5ccc(Cl)cc5Cl)nn4)[C@@H](O)[C@H](N)[C@H]3O)[C@H](N)C[C@@H]2N)[C@H](O)[C@@H](O)[C@@H]1O (some centres undefined)
[1]
  IC50 at 24 h: > 100 µg/mL
Cell membrane [6]
  Activity: inactive
Escherichia coli
  MIC: ≥ 256 µg/mL
Candida albicans [2]
  MIC: 32 µg/mL
Cell membrane [7]
  Activity: Active
Candida albicans [3]
  MIC: 128 µg/mL
Diutina rugosa
  MIC: ≥ 256 µg/mL
Candida tropicalis
  MIC: 64 µg/mL
Staphylococcus aureus
  MIC: 128 µg/mL
Candida parapsilosis
  MIC: ≥ 256 µg/mL
Cryptococcus neoformans [4]
  MIC: 64 µg/mL
Cell membrane [8]
  Activity: inactive
Cryptococcus neoformans [5]
  MIC: 64 µg/mL
Cell membrane [9]
  Activity: Active

## Cl.Cl.Cl.Cl.NC[C@H]1O[C@H](O[C@H]2[C@H](O)[C@@H](O[C@H]3O[C@H](Cn4cc(COC(Cn5cncn5)c5ccc(F)cc5F)nn4)[C@@H](O)[C@H](N)[C@H]3O)[C@H](N)C[C@@H]2N)[C@H](O)[C@@H](O)[C@@H]1O (some centres undefined)
[1]
  IC50 at 24 h: > 100 µg/mL
Escherichia coli
  MIC: ≥ 256 µg/mL
Candida albicans [2]
  MIC: ≥ 256 µg/mL
Candida albicans [3]
  MIC: ≥ 256 µg/mL
Diutina rugosa
  MIC: ≥ 256 µg/mL
Candida tropicalis
  MIC: ≥ 256 µg/mL
Staphylococcus aureus
  MIC: ≥ 256 µg/mL
Candida parapsilosis
  MIC: ≥ 256 µg/mL
Cryptococcus neoformans [4]
  MIC: ≥ 256 µg/mL
Cryptococcus neoformans [5]
  MIC: ≥ 256 µg/mL
